This is an account of results in BindingDB's records for doi:10.1021/jm100555f (Harvard Medical School, 2010).

The nature of this test: Inhibition of Bcr-Abl in mouse BA/F3 cells.
As to `NC(=O)CCn1ccc2c(Nc3ccc(OC(F)(F)F)cc3)ncnc21` [3-(4-(4-(trifluoromethoxy)phenylamino)-7H-pyrrolo[2,3-d]pyrimidin-7-yl)propanamide], the concentration giving a half-maximal response (EC50) was 490 nM. In other words, the sub-micromolar range.

`NS(=O)(=O)c1cccc(-c2cc(Nc3ccc(OC(F)(F)F)cc3)ncn2)c1` [3-(6-(4-(trifluoromethoxy)phenylamino)pyrimidin-4-yl)benzenesulfonamide] displayed an EC50 of 580 nM.

For `NC(=O)c1cccc(Nc2cc(Nc3ccc(OC(F)(F)F)cc3)ncn2)c1` [3-(6-(4-(trifluoromethoxy)phenylamino)pyrimidin-4-ylamino)benzamide], the half-maximal effective concentration (EC50) amounted to 2920 nM. Against the preceding molecule, the EC50 is about 5-fold higher.

`NC(=O)c1cccc(Oc2cc(Nc3ccc(OC(F)(F)F)cc3)ncn2)c1` [3-(6-(4-(trifluoromethoxy)phenylamino)pyrimidin-4-yloxy)benzamide] had an EC50 of 5000 nM.

`O=C(O)c1cc2c(Nc3ccc(OC(F)(F)F)cc3)ncnc2s1` [4-(4-(trifluoromethoxy)phenylamino)thieno[2,3-d]pyrimidine-6-carboxylic acid] had an EC50 of over 10000 nM.

Turning to `NC(=O)c1ccc(-c2cc(Nc3ccc(OC(F)(F)F)cc3)ncn2)cc1` [4-(6-(4-(trifluoromethoxy)phenylamino)pyrimidin-4-yl)benzamide], the midpoint of the response, the EC50, lay at 480 nM.

On to `NS(=O)(=O)c1ccc(-c2cc(Nc3ccc(OC(F)(F)F)cc3)ncn2)cc1` [4-(6-(4-(trifluoromethoxy)phenylamino)pyrimidin-4-yl)benzenesulfonamide], for which a half-maximal response (EC50) required 120 nM.

Take `NC(=O)c1ccc(Cn2ncc3c(Nc4ccc(OC(F)(F)F)cc4)ncnc32)cc1` [4-((4-(4-(trifluoromethoxy)phenylamino)-1H-pyrazolo[3,4-d]pyrimidin-1-yl)methyl)benzamide]: the EC50 amounted to 6890 nM.

Regarding `Cc1c(NCCN2CCOCC2)ncnc1Nc1ccc(OC(F)(F)F)cc1` [5-methyl-N4-(2-morpholinoethyl)-N6-(4-(trifluoromethoxy)phenyl)pyrimidine-4,6-diamine], the EC50 turned out to be 970 nM.

Regarding `CC(C)Cn1cc(-c2cc(Nc3ccc(OC(F)(F)F)cc3)ncn2)cn1` [6-(1-isobutyl-1H-pyrazol-4-yl)-N-(4-(trifluoromethoxy)phenyl)pyrimidin-4-amine], a half-maximal effect (EC50) was put at 360 nM.

Regarding `FC(F)(F)Oc1ccc(Nc2cc(-n3ccnc3)ncn2)cc1` [6-(1H-imidazol-1-yl)-N-(4-(trifluoromethoxy)phenyl)pyrimidin-4-amine], a half-maximal effect (EC50) was put at 1660 nM.

`FC(F)(F)Oc1ccc(Nc2cc(-c3cccc4[nH]ccc34)ncn2)cc1` [6-(1H-indol-4-yl)-N-(4-(trifluoromethoxy)phenyl)pyrimidin-4-amine]: the EC50 was found to be 140 nM. This EC50 lies about 12-fold lower than the previous one.

Turning to `FC(F)(F)Oc1ccc(Nc2cc(-c3ccc4[nH]ccc4c3)ncn2)cc1` [6-(1H-indol-5-yl)-N-(4-(trifluoromethoxy)phenyl)pyrimidin-4-amine], the midpoint of the response, the EC50, lay at 290 nM. Compared with the last molecule, the EC50 is about 2.1-fold higher.

On to `FC(F)(F)Oc1ccc(Nc2cc(-c3cn[nH]c3)ncn2)cc1` [6-(1H-pyrazol-4-yl)-N-(4-(trifluoromethoxy)phenyl)pyrimidin-4-amine], for which the EC50 is 90 nM. Against the preceding molecule, the EC50 is about 3.2-fold lower.

Consider `FC(F)(F)Oc1ccc(Nc2cc(-c3ccnc4[nH]ccc34)ncn2)cc1` [6-(1H-pyrrolo[2,3-b]pyridin-4-yl)-N-(4-(trifluoromethoxy)phenyl)pyrimidin-4-amine], for which the midpoint of the response, the EC50, lay at 170 nM.

In turn, `Cc1nc(-c2cc(Nc3ccc(OC(F)(F)F)cc3)ncn2)cs1` [6-(2-methylthiazol-4-yl)-N-(4-(trifluoromethoxy)phenyl)pyrimidin-4-amine] returned an EC50 of 1230 nM.

Take `CS(=O)(=O)c1cccc(-c2cc(Nc3ccc(OC(F)(F)F)cc3)ncn2)c1` [6-(3-(methylsulfonyl)phenyl)-N-(4-(trifluoromethoxy)phenyl)pyrimidin-4-amine]: a half-maximal response (EC50) required 390 nM. Compared with the last molecule, the EC50 is about 3.2-fold lower.

Regarding `Nc1cccc(-c2cc(Nc3ccc(OC(F)(F)F)cc3)ncn2)c1` [6-(3-aminophenyl)-N-(4-(trifluoromethoxy)phenyl)pyrimidin-4-amine], the half-maximal effective concentration (EC50) amounted to 330 nM. The EC50 values of the last two molecules are within 1.5-fold of each other.

As usually defined, the EC50 is the concentration that produces a half-maximal response. The low end stands for greater potency, the high end for weaker potency.
